Results reported in patent US20240168030A1, “DIRECT FLUORESCENT GLYCAN LABELING” (BIO-TECHNE CORPORATION, priority 2019, published 2024).

How the values were obtained:
Type in all cases: biochemical
FUT7 = target: T1, FUT7 (Homo sapiens, UniProt Q11130); experiment: Fluorescent labeling with fluorophore-conjugated fucose by FUT7; set-up: key to Tolerance of the fluorophore by FUT7: +++: indicated by number of + signs; ++: indicated by number of + signs; indicated by number of + signs; conditions: for Tolerance of the fluorophore by FUT7: fluorophore-conjugated fucose donor, acceptor GlcNAc of sialylactosamine, FIG. 9
T1 sequence (Q11130 1-342): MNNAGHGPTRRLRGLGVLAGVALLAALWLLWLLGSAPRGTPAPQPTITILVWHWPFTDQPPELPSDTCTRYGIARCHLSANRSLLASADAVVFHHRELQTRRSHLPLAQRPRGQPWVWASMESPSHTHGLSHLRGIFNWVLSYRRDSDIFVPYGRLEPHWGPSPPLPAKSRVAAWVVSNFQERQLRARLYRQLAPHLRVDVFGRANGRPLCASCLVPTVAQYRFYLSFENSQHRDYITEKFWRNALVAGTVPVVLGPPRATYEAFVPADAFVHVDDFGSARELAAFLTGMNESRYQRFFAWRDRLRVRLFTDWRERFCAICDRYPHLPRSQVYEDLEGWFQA
Protocol: (§1) FIG. 9A-FIG. 9B show exemplary results of probing substrate glycans of various fucosyltransferases on fetuin and asialofetuin. FIG. 9A. Probing substrate glycans of fucosyltransferases with guanosine 5′-diphosphate activated Cy5 conjugated fucose (GDP-Cy5-Fuc). […] FUT9 labeled itself (indicated by an arrow in the gel). FIG. 9B. Tolerance of Alexa-Fluor®555 (555), Alexa-Fluor®488 (488), and Cy5 by the indicated fucosyltransferases. All reactions were incubated at 37° C. for 30 minutes and then separated on SDS-PAGE and imaged with silver staining (upper panels) and fluorescent imager (lower panels). M, molecular marker.
(§2) For a typical labeling reaction, 1 μg to 5 μg target protein was mixed with 0.2 nmol GDP-f-Fuc and 0.2 μg of a fucosyltransferase in 30 μL buffer of 25 mM Tris pH 7.5, 10 mM MnCl2. The mixture was incubated at 37° C. for 30 minutes. The reaction was then separated by sodium dodecyl sulfate—polyacrylamide gel electrophoresis (SDS-PAGE) and the gel was directly imaged using a fluorescent imager FluorChem M ProteinSimple, Bio-Techne, Minneapolis, MN), followed by imaging with traditional protein imaging methods such as silver staining or trichloroethanol (TCE) staining.
(§3) The four enzymes tolerated the three fluorophores to different levels.

FUT2 = target: T2, FUT2 (Homo sapiens, UniProt Q10981); experiment: Fluorescent labeling with fluorophore-conjugated fucose by FUT2; set-up: key to Tolerance of the fluorophore by FUT2: +++: indicated by number of + signs; ++: indicated by number of + signs; indicated by number of + signs; conditions: for Tolerance of the fluorophore by FUT2: fluorophore-conjugated fucose donor, acceptor terminal Gal of lactosamine, fluorescent intensity of labeled fetuin or asialofetuin in FIG. 9
T2 construct: purchased Bio-Techne (Minneapolis, MN)
T2 sequence (Q10981 1-343): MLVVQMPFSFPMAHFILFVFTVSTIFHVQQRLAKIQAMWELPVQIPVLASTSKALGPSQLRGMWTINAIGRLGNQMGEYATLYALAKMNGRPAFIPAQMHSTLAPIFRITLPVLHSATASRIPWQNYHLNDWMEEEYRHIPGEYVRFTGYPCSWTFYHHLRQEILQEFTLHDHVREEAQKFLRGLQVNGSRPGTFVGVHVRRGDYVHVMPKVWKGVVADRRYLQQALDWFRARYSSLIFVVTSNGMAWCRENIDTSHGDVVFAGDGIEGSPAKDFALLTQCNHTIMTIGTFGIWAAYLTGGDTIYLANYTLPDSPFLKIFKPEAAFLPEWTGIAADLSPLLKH
Protocol: as §1, §2, §3

FUT6 = target: T3, FUT6 (Homo sapiens, UniProt P51993); experiment: Fluorescent labeling with fluorophore-conjugated fucose by FUT6; set-up: key: +++: indicated by number of + signs; ++: indicated by number of + signs; indicated by number of + signs; conditions: fluorophore-conjugated fucose donor; acceptor GlcNAc of lactosamine, sialylation on terminal Gal is flexible; FIG. 9
T3 sequence (P51993 1-359): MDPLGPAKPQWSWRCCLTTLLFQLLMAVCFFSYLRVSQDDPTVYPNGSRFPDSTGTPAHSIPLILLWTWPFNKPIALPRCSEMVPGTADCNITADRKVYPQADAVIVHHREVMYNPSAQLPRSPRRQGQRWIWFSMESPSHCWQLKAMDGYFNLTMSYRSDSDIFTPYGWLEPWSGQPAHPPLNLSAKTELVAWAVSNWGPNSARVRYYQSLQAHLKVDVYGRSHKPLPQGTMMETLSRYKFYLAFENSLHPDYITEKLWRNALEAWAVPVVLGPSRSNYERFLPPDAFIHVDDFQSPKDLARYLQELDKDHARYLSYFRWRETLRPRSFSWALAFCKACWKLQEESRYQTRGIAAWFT
Protocol: as §1, §2, §3

[1] = among Cy5-, AlexaFluor® 488-, and AlexaFluor® 555-conjugated fucoses, FIG. 9B

| Substance | Tolerance of the fluorophore by FUT7 (FUT7) | Fluorophore preference of FUT2 (FUT2; [1]) | Tolerance of the fluorophore by FUT2 (FUT2) | Tolerance of the fluorophore by FUT6 (FUT6) | Fluorophore preference of FUT7 (FUT7; [1]) |
| --- | --- | --- | --- | --- | --- |
| guanosine 5′-diphosphate activated Alexa-Fluor®555 conjugated fucose [GDP-AF555-Fuc] | + | preferred | +++ | ++ | – |
| guanosine 5′-diphosphate activated Alexa-Fluor®488 conjugated fucose [GDP-AF488-Fuc] | ++ | – | + | ++ | preferred |
